Laboratory results taken from patent publication US20250163029A1, “PYRIDONE OR PYRIMIDONE DERIVATIVE AND APPLICATION THEREOF” (Medshine Discovery Inc., priority 2022, published 2025).

Key:
SARS-CoV-2 replicon = assay: microbe, parasite or virus in culture; assay type: cell-based; details: Severe acute respiratory syndrome coronavirus 2, Huh-7, 24 h
SARS-CoV-2 Mpro = biological target: T1, SARS-CoV-2 Mpro (Severe acute respiratory syndrome coronavirus 2, UniProt P0DTD1); assay: In vitro anti-novel coronavirus Mpro protease activity; assay type: biochemical; details: 25 nM Mpro protein, 25 μM substrate
T1 construct: Mpro protein was added to the 384-well assay plate; purchased WuXi AppTec
Protocol: (§1) The compound was dissolved in DMSO, and diluted in a 3-fold gradient with Echo655 according to the concentration requirements for the assay to 10 concentration points. Duplicate assays were set at each concentration. The diluted solution was added to a 384-well plate. Mpro protein and substrate were diluted with assay buffer (100 mM NaCl, 20 mM Tris-HCl, 1 mM EDTA). Mpro protein was added to the 384-well assay plate, and incubated with the compound for 30 min at room temperature. Then the substrate was added. The assay concentration of Mpro protein was 25 nM, and the assay concentration of substrate was 25 μM. After incubating for 60 minutes in a 30° C. constant temperature incubator, the fluorescence signal value of Ex/Em=340 nm/490 nm was detected by microplate reader. At the same time, the background well containing the substrate and compound but not containing Mpro protein was detected as control.
as §1, with “EDTA), and” for “EDTA).”, “plate,” for “plate, and”
2) Log (agonist) vs. response—variable slope nonlinear fitting analysis was carried out on the inhibition rate data (inhibition rate %) of the compound by using GraphPad Prism software, and the IC50 value of the compound was obtained.

Compound | EC50 (SARS-CoV-2 replicon) [nM] | IC50 (SARS-CoV-2 Mpro) [nM]
Cn1cnc(Cc2cn(Cc3cc(F)c(F)cc3F)c(Nc3cc4cn(C)nc4cc3Cl)nc2=O)n1 [Compound 4] | 66 | 25
Cn1cnc(Cc2c(F)n(Cc3cc(F)c(F)cc3F)c(Nc3cc4cn(C)nc4cc3Cl)nc2=O)n1 [Compound 8] | 58 | 58
Cn1cnc(Cc2cn(Cc3cc(F)c(F)c(F)c3F)c(Nc3cc4cn(C)nc4cc3Cl)nc2=O)n1 [Compound 7] | 82 | 62
